According to patent publication US20060083680A1, “Diphenyl ether derivatives and their use for imaging serotonin transporters” (The Trustees of the University of Pennsylvania, priority 2004, published 2006):
Where “and” joins values, the source holds several entries; their conditions need not be identical. Equal values may be shown once. Entries after “also recorded” stand apart in the source; their conditions may differ.

What was measured:
[1] = Biodistribution in rats after iv injection (organs); format: in vivo; conditions: for Biodistribution Blood / Biodistribution Brain / Biodistribution Heart / Biodistribution Kidney / Biodistribution Liver / Biodistribution Lung / Biodistribution Muscle / Biodistribution Skin / Biodistribution Spleen / Biodistribution Thyroid: iv
Experimental: Biodistribution in rats: Three rats per group were used for each biodistribution study. While under ether anesthesia, 0.2 mL of a saline solution containing 10 μCi of radioactive tracer was injected into the femoral vein. The rats were sacrificed at the time indicated by cardiac excision while under ether anesthesia. Organs of interest were removed and weighed, and the radioactivity was counted. The percent dose per organ was calculated by a comparison of the tissue counts to counts of 1% of the initial dose (100 times diluted aliquots of the injected material) measured at the same time.

[2] = Stability of the radioactive material; conditions: refrigerator
[3] = molecular target: T1, SERT binding sites (Rattus norvegicus, UniProt P31652); experiment: Ex vivo autoradiography of rat brain sections; format: in vivo, rats; conditions: rats, ex vivo after i.v. injection
T1 construct: from tissue; host or cells: rat brain in vivo (hypothalamus, cortex, striatum, hippocampus, cerebellum); ex vivo brain sections
T1 sequence (P31652 whole entry): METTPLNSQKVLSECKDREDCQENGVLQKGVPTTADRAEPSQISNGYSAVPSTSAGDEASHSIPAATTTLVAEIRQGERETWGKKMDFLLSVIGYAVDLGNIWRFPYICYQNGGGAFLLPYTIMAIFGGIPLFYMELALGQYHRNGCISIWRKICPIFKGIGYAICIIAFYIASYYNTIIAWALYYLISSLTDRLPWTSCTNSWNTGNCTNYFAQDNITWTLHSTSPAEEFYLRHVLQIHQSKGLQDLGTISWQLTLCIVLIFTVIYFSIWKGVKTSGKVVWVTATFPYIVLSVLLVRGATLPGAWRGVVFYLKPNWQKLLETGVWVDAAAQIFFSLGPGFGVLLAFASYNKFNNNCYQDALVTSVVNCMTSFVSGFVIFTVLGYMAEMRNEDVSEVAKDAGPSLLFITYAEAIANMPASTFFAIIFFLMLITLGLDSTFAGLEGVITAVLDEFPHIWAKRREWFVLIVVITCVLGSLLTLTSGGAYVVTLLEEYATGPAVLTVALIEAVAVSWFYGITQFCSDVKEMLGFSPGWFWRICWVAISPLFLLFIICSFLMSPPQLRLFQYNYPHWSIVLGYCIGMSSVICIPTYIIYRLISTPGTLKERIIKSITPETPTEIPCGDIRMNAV

[4] = molecular target: T2, serotonin transporters (Rattus norvegicus, UniProt P31652); experiment: Regional brain distribution and specific binding ratio in rats; format: in vivo; conditions: for Ratio of (Region-Cerebellum)/Cerebellum, CX / Ratio of (Region-Cerebellum)/Cerebellum, HP / Ratio of (Region-Cerebellum)/Cerebellum, HY / Ratio of (Region-Cerebellum)/Cerebellum, ST / Regional brain distribution CB (cerebellum) / Regional brain distribution CX (cortex) / Regional brain distribution HP (hippocampus) / Regional brain distribution HY (hypothalamus) / Regional brain distribution ST (striatum): iv
T2 construct: from tissue; host or cells: rat brain in vivo (hypothalamus, cortex, striatum, hippocampus, cerebellum); ex vivo brain sections
T2 sequence (P31652 whole entry): as above
Experimental: Regional brain distribution in rats was measured after an i.v. injection of the radioactive tracer. Samples from different brain regions: cortex (frontal plus occipital), striatum, hippocampus, cerebellum and hypothalamus were dissected, weighed and counted. The percentage dose/g of each sample was calculated by comparing sample counts with the counts of the diluted initial dose described above. The specific binding ratio in each region was obtained by dividing the % dose/gram values between region by that in the cerebellum ([region-cerebellum/cerebellum]). The cerebellum region containing little or no serotonin transporters was used as the background region.

## CN(C)Cc1ccccc1Oc1ccc([125I])cc1N [[^125I]4, [^125I][^123I]2-(2-(Dimethylaminomethyl)phenoxy)-5-iodophenylamine]
[1]; 2 min post-injection
  brain uptake: 1.77 % dose and 1.77±0.07 % dose
[1]; 2 min
  Biodistribution Blood: 5.75 ± 0.54 % dose/organ
  Biodistribution Brain: 1.77 ± 0.07 % dose/organ
  Biodistribution Heart: 1.51 ± 0.13 % dose/organ
  Biodistribution Kidney: 4.27 ± 0.90 % dose/organ
  Biodistribution Liver: 5.71 ± 0.88 % dose/organ
  Biodistribution Lung: 17.2 ± 2.32 % dose/organ
  Biodistribution Muscle: 25.9 ± 4.82 % dose/organ
  Biodistribution Skin: 4.45 ± 0.52 % dose/organ
  Biodistribution Spleen: 0.44 ± 0.08 % dose/organ
  Biodistribution Thyroid: 0.10 ± 0.02 % dose/organ
[1]; 30 min
  Biodistribution Blood: 4.56 ± 0.20 % dose/organ
  Biodistribution Brain: 2.12 ± 0.15 % dose/organ
  Biodistribution Heart: 0.32 ± 0.04 % dose/organ
  Biodistribution Kidney: 2.67 ± 0.48 % dose/organ
  Biodistribution Liver: 7.10 ± 0.66 % dose/organ
  Biodistribution Lung: 3.56 ± 0.96 % dose/organ
  Biodistribution Muscle: 18.1 ± 0.55 % dose/organ
  Biodistribution Skin: 11.3 ± 0.78 % dose/organ
  Biodistribution Spleen: 0.84 ± 0.05 % dose/organ
  Biodistribution Thyroid: 0.15 ± 0.04 % dose/organ
[1]; 60 min
  Biodistribution Blood: 3.89 ± 0.28 % dose/organ
  Biodistribution Brain: 1.74 ± 0.08 % dose/organ
  Biodistribution Heart: 0.20 ± 0.01 % dose/organ
  Biodistribution Kidney: 1.67 ± 0.21 % dose/organ
  Biodistribution Liver: 5.79 ± 0.70 % dose/organ
  Biodistribution Lung: 1.79 ± 0.06 % dose/organ
  Biodistribution Muscle: 12.9 ± 0.84 % dose/organ
  Biodistribution Skin: 13.9 ± 1.00 % dose/organ
  Biodistribution Spleen: 0.47 ± 0.02 % dose/organ
  Biodistribution Thyroid: 0.41 ± 0.11 % dose/organ
[1]; 120 min
  Biodistribution Blood: 3.15 ± 0.44 % dose/organ
  Biodistribution Brain: 1.08 ± 0.06 % dose/organ
  Biodistribution Heart: 0.13 ± 0.01 % dose/organ
  Biodistribution Kidney: 1.24 ± 0.15 % dose/organ
  Biodistribution Liver: 4.90 ± 0.38 % dose/organ
  Biodistribution Lung: 0.88 ± 0.04 % dose/organ
  Biodistribution Muscle: 9.18 ± 0.65 % dose/organ
  Biodistribution Skin: 12.5 ± 2.14 % dose/organ
  Biodistribution Spleen: 0.27 ± 0.01 % dose/organ
  Biodistribution Thyroid: 0.96 ± 0.06 % dose/organ
[1]; 240 min
  Biodistribution Blood: 3.12 ± 0.32 % dose/organ
  Biodistribution Brain: 0.33 ± 0.02 % dose/organ
  Biodistribution Heart: 0.08 ± 0.02 % dose/organ
  Biodistribution Kidney: 0.61 ± 0.09 % dose/organ
  Biodistribution Liver: 3.52 ± 0.20 % dose/organ
  Biodistribution Lung: 0.37 ± 0.03 % dose/organ
  Biodistribution Muscle: 6.27 ± 0.06 % dose/organ
  Biodistribution Skin: 12.6 ± 0.48 % dose/organ
  Biodistribution Spleen: 0.13 ± 0.02 % dose/organ
  Biodistribution Thyroid: 2.34 ± 1.16 % dose/organ
[1]; 6 hrs
  Biodistribution Blood: 3.29 ± 0.27 % dose/organ
  Biodistribution Brain: 0.11 ± 0.01 % dose/organ
  Biodistribution Heart: 0.08 ± 0.00 % dose/organ
  Biodistribution Kidney: 0.55 ± 0.07 % dose/organ
  Biodistribution Liver: 3.59 ± 0.23 % dose/organ
  Biodistribution Lung: 0.25 ± 0.01 % dose/organ
  Biodistribution Muscle: 5.01 ± 0.42 % dose/organ
  Biodistribution Skin: 15.5 ± 1.50 % dose/organ
  Biodistribution Spleen: 0.11 ± 0.01 % dose/organ
  Biodistribution Thyroid: 2.68 ± 0.66 % dose/organ
[1]; 11 hrs
  Biodistribution Blood: 2.52 ± 0.47 % dose/organ
  Biodistribution Brain: 0.02 ± 0.00 % dose/organ
  Biodistribution Heart: 0.06 ± 0.00 % dose/organ
  Biodistribution Kidney: 0.40 ± 0.10 % dose/organ
  Biodistribution Liver: 2.64 ± 0.19 % dose/organ
  Biodistribution Lung: 0.16 ± 0.00 % dose/organ
  Biodistribution Muscle: 4.01 ± 0.85 % dose/organ
  Biodistribution Skin: 10.9 ± 4.62 % dose/organ
  Biodistribution Spleen: 0.09 ± 0.01 % dose/organ
  Biodistribution Thyroid: 5.15 ± 1.49 % dose/organ
[1]; 24 hrs
  Biodistribution Blood: 0.70 ± 0.06 % dose/organ
  Biodistribution Brain: 0.01 ± 0.00 % dose/organ
  Biodistribution Heart: 0.02 ± 0.00 % dose/organ
  Biodistribution Kidney: 0.17 ± 0.02 % dose/organ
  Biodistribution Liver: 1.83 ± 0.07 % dose/organ
  Biodistribution Lung: 0.04 ± 0.00 % dose/organ
  Biodistribution Muscle: 1.13 ± 0.13 % dose/organ
  Biodistribution Skin: 4.02 ± 0.26 % dose/organ
  Biodistribution Spleen: 0.05 ± 0.01 % dose/organ
  Biodistribution Thyroid: 4.61 ± 1.21 % dose/organ
[2]
  stability in a refrigerator: stable in a refrigerator for at least three weeks
[3]
  regional distribution pattern in brain: distinctive distribution pattern in the brain, which reflected regional distribution of SERT binding sites; also recorded: excellent regional distribution pattern consistent with known SERT localization
[4]; 60-240 min post i.v. injection
  hypothalamus uptake compared to other radioiodinated compounds: highest uptake in hypothalamus
[4]; 2 min
  Ratio of (Region-Cerebellum)/Cerebellum, CX: 0.56 ± 0.55
  Ratio of (Region-Cerebellum)/Cerebellum, HP: 0.13 ± 0.22
  Ratio of (Region-Cerebellum)/Cerebellum, HY: 0.24 ± 0.17
  Ratio of (Region-Cerebellum)/Cerebellum, ST: 0.01 ± 0.27
  Regional brain distribution CB (cerebellum): 0.79 ± 0.21 % dose/g
  Regional brain distribution CX (cortex): 1.16 ± 0.14 % dose/g
  Regional brain distribution HP (hippocampus): 0.86 ± 0.07 % dose/g
  Regional brain distribution HY (hypothalamus): 0.96 ± 0.15 % dose/g
  Regional brain distribution ST (striatum): 0.77 ± 0.04 % dose/g
[4]; 30 min
  Ratio of (Region-Cerebellum)/Cerebellum, CX: 0.96 ± 0.14
  Ratio of (Region-Cerebellum)/Cerebellum, HP: 0.68 ± 0.22
  Ratio of (Region-Cerebellum)/Cerebellum, HY: 1.06 ± 0.22
  Ratio of (Region-Cerebellum)/Cerebellum, ST: 0.83 ± 0.23
  Regional brain distribution CB (cerebellum): 0.64 ± 0.09 % dose/g
  Regional brain distribution CX (cortex): 1.25 ± 0.13 % dose/g
  Regional brain distribution HP (hippocampus): 1.06 ± 0.12 % dose/g
  Regional brain distribution HY (hypothalamus): 1.30 ± 0.06 % dose/g
  Regional brain distribution ST (striatum): 1.16 ± 0.10 % dose/g
[4]; 60 min
  Ratio of (Region-Cerebellum)/Cerebellum, CX: 1.35 ± 0.07
  Ratio of (Region-Cerebellum)/Cerebellum, HP: 1.30 ± 0.05
  Ratio of (Region-Cerebellum)/Cerebellum, HY: 1.92 and 1.92 ± 0.20
  Ratio of (Region-Cerebellum)/Cerebellum, ST: 1.51 ± 0.12
  Regional brain distribution CB (cerebellum): 0.41 ± 0.03 % dose/g
  Regional brain distribution CX (cortex): 0.95 ± 0.07 % dose/g
  Regional brain distribution HP (hippocampus): 0.94 ± 0.08 % dose/g
  Regional brain distribution HY (hypothalamus): 1.18 ± 0.08 % dose/g
  Regional brain distribution ST (striatum): 1.02 ± 0.11 % dose/g
[4]; 120 min
  Ratio of (Region-Cerebellum)/Cerebellum, CX: 1.48 ± 0.13
  Ratio of (Region-Cerebellum)/Cerebellum, HP: 2.19 ± 0.07
  Ratio of (Region-Cerebellum)/Cerebellum, HY: 3.49 and 3.49 ± 0.09
  Ratio of (Region-Cerebellum)/Cerebellum, ST: 2.53 ± 0.17
  Regional brain distribution CB (cerebellum): 0.21 ± 0.01 % dose/g
  Regional brain distribution CX (cortex): 0.51 ± 0.04 % dose/g
  Regional brain distribution HP (hippocampus): 0.65 ± 0.04 % dose/g
  Regional brain distribution HY (hypothalamus): 0.92 ± 0.06 % dose/g
  Regional brain distribution ST (striatum): 0.72 ± 0.01 % dose/g
[4]; 240 min
  Ratio of (Region-Cerebellum)/Cerebellum, CX: 1.12 ± 0.17
  Ratio of (Region-Cerebellum)/Cerebellum, HP: 2.47 ± 0.28
  Ratio of (Region-Cerebellum)/Cerebellum, HY: 4.49 and 4.3 and 4.49 ± 0.12
  Ratio of (Region-Cerebellum)/Cerebellum, ST: 3.11 ± 0.35
  Regional brain distribution CB (cerebellum): 0.06 ± 0.00 % dose/g
  Regional brain distribution CX (cortex): 0.12 ± 0.01 % dose/g
  Regional brain distribution HP (hippocampus): 0.20 ± 0.02 % dose/g
  Regional brain distribution HY (hypothalamus): 0.32 ± 0.03 % dose/g
  Regional brain distribution ST (striatum): 0.24 ± 0.02 % dose/g
[4]; 6 hrs
  Ratio of (Region-Cerebellum)/Cerebellum, CX: 0.58 ± 0.09
  Ratio of (Region-Cerebellum)/Cerebellum, HP: 1.21 ± 0.11
  Ratio of (Region-Cerebellum)/Cerebellum, HY: 2.64 and 2.64 ± 0.54
  Ratio of (Region-Cerebellum)/Cerebellum, ST: 1.56 ± 0.41
  Regional brain distribution CB (cerebellum): 0.027 ± 0.002 % dose/g
  Regional brain distribution CX (cortex): 0.042 ± 0.002 % dose/g
  Regional brain distribution HP (hippocampus): 0.059 ± 0.005 % dose/g
  Regional brain distribution HY (hypothalamus): 0.097 ± 0.015 % dose/g
  Regional brain distribution ST (striatum): 0.068 ± 0.005 % dose/g
[4]; 11 hrs
  Ratio of (Region-Cerebellum)/Cerebellum, CX: 0.00 ± 0.16
  Ratio of (Region-Cerebellum)/Cerebellum, HP: 0.09 ± 0.08
  Ratio of (Region-Cerebellum)/Cerebellum, HY: 0.44 ± 0.19
  Ratio of (Region-Cerebellum)/Cerebellum, ST: 0.14 ± 0.13
  Regional brain distribution CB (cerebellum): 0.011 ± 0.0013 % dose/g
  Regional brain distribution CX (cortex): 0.010 ± 0.0010 % dose/g
  Regional brain distribution HP (hippocampus): 0.012 ± 0.0021 % dose/g
  Regional brain distribution HY (hypothalamus): 0.016 ± 0.0025 % dose/g
  Regional brain distribution ST (striatum): 0.012 ± 0.0000 % dose/g
[4]; 24 hrs
  Ratio of (Region-Cerebellum)/Cerebellum, HY: 0.23 ± 0.15
  Regional brain distribution CB (cerebellum): 0.0049 ± 0.0009 % dose/g
  Regional brain distribution CX (cortex): 0.0040 ± 0.0007 % dose/g
  Regional brain distribution HP (hippocampus): 0.0040 ± 0.0005 % dose/g
  Regional brain distribution HY (hypothalamus): 0.0060 ± 0.0010 % dose/g
  Regional brain distribution ST (striatum): 0.0039 ± 0.0004 % dose/g
